# Laboratory results from PubChem BioAssay AID1963980 (Molecular Pharmacology Branch, DTP, NCI, 2024).
# pIC50: −log10 of the molar value.
# Tested on: 475296-252-R-J1-PDC spheroid viability
# Test: Anticancer human tumor 475296-252-R-J1-PDC patient-derived rectal carcinoma cell line growth inhibition [PI3K]
# Details: spheroids with HUVEC and MSC; for pIC50: curve of first compound; for viability, T/C: stronger effect = lower value
# How it was run: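 Targeted small molecules plus PI3K inhibitors, half-log dose series from Cmax (default top 10 microM), were applied to heterotypic spheroids of cancer cells with HUVEC and MSCs. Viability indicated growth inhibition.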
# [1] = second compound 0.0316 µM, first compound 0.0316 µM
# [2] = second compound 0.0316 µM, first compound 0.1 µM
# [3] = second compound 0.0316 µM, first compound 0.316 µM
# [4] = second compound 0.0316 µM, first compound 1 µM
# [5] = second compound 0.0316 µM, first compound 3.16 µM
# [6] = second compound 0.0316 µM, first compound 10 µM
# [7] = second compound 0.1 µM, first compound 0.0316 µM
# [8] = second compound 0.1 µM, first compound 0.1 µM
# [9] = second compound 0.1 µM, first compound 0.316 µM
# [10] = second compound 0.1 µM, first compound 1 µM
# [11] = second compound 0.1 µM, first compound 3.16 µM
# [12] = second compound 0.1 µM, first compound 10 µM
# [13] = second compound 0.316 µM, first compound 0.0316 µM
# [14] = second compound 0.316 µM, first compound 0.1 µM
# [15] = second compound 0.316 µM, first compound 0.316 µM
# [16] = second compound 0.316 µM, first compound 1 µM
# [17] = second compound 0.316 µM, first compound 3.16 µM
# [18] = second compound 0.316 µM, first compound 10 µM
# [19] = second compound 1 µM, first compound 0.0316 µM
# [20] = second compound 1 µM, first compound 0.1 µM
# [21] = second compound 1 µM, first compound 0.316 µM
# [22] = second compound 1 µM, first compound 1 µM
# [23] = second compound 1 µM, first compound 3.16 µM
# [24] = second compound 1 µM, first compound 10 µM
# [25] = second compound 3.16 µM, first compound 0.0316 µM
# [26] = second compound 3.16 µM, first compound 0.1 µM
# [27] = second compound 3.16 µM, first compound 0.316 µM
# [28] = second compound 3.16 µM, first compound 1 µM
# [29] = second compound 3.16 µM, first compound 3.16 µM
# [30] = second compound 3.16 µM, first compound 10 µM
# [31] = second compound 10 µM, first compound 0.0316 µM
# [32] = second compound 10 µM, first compound 0.1 µM
# [33] = second compound 10 µM, first compound 0.316 µM
# [34] = second compound 10 µM, first compound 1 µM
# [35] = second compound 10 µM, first compound 3.16 µM
# [36] = second compound 10 µM, first compound 10 µM
# 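Further: spheroids exposed to agents for seven days before readout.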
smiles,measurement,setting,value
CC(Cn1ccc(-c2ccc(C#N)c(Cl)c2)n1)NC(=O)c1cc(C(C)O)[nH]n1 (stereo unspecified) + CC(Nc1ncnc2nc[nH]c12)c1cc2cccc(Cl)c2c(=O)n1-c1ccccc1,pIC50,second compound 0.0316 µM,< 5.00
same,pIC50,second compound 0.1 µM,< 5.00
same,pIC50,second compound 0.316 µM,< 5.00
same,pIC50,second compound 1 µM,< 5.00
same,pIC50,second compound 3.16 µM,< 5.00
same,pIC50,second compound 10 µM,< 5.00
same,"viability, T/C",[1],97.8%
same,"viability, T/C",[2],94.9%
same,"viability, T/C",[3],96.6%
same,"viability, T/C",[4],92.1%
same,"viability, T/C",[5],102%
same,"viability, T/C",[6],104%
same,"viability, T/C",[7],99.1%
same,"viability, T/C",[8],98.5%
same,"viability, T/C",[9],91.7%
same,"viability, T/C",[10],89%
same,"viability, T/C",[11],101%
same,"viability, T/C",[12],84.1%
same,"viability, T/C",[13],97%
same,"viability, T/C",[14],97.8%
same,"viability, T/C",[15],94.1%
same,"viability, T/C",[16],99.5%
same,"viability, T/C",[17],104%
same,"viability, T/C",[18],89.7%
same,"viability, T/C",[19],94.4%
same,"viability, T/C",[20],94.4%
same,"viability, T/C",[21],89.5%
same,"viability, T/C",[22],98.7%
same,"viability, T/C",[23],113%
same,"viability, T/C",[24],90.2%
same,"viability, T/C",[25],95.1%
same,"viability, T/C",[26],95.8%
same,"viability, T/C",[27],83.4%
same,"viability, T/C",[28],92.2%
same,"viability, T/C",[29],94.5%
same,"viability, T/C",[30],96.2%
same,"viability, T/C",[31],95%
same,"viability, T/C",[32],99.2%
same,"viability, T/C",[33],104%
same,"viability, T/C",[34],92.3%
same,"viability, T/C",[35],95.1%
same,"viability, T/C",[36],91.8%
Cn1ncc(Cl)c1-c1cc(C(=O)NC(CN)Cc2cccc(F)c2)sc1Cl (stereo unspecified) + CC(Nc1ncnc2nc[nH]c12)c1cc2cccc(Cl)c2c(=O)n1-c1ccccc1,pIC50,second compound 0.0316 µM,< 5.00
same,pIC50,second compound 0.1 µM,< 5.00
same,pIC50,second compound 0.316 µM,< 5.00
same,pIC50,second compound 1 µM,< 5.00
same,pIC50,second compound 3.16 µM,< 5.00
same,pIC50,second compound 10 µM,< 5.00
same,"viability, T/C",[1],101%
same,"viability, T/C",[2],83.3%
same,"viability, T/C",[3],60.1%
same,"viability, T/C",[4],71.5%
same,"viability, T/C",[5],71.7%
same,"viability, T/C",[6],61.5%
same,"viability, T/C",[7],95.7%
same,"viability, T/C",[8],80%
same,"viability, T/C",[9],64.9%
same,"viability, T/C",[10],63.6%
same,"viability, T/C",[11],70.2%
same,"viability, T/C",[12],57%
same,"viability, T/C",[13],90.5%
same,"viability, T/C",[14],77.6%
same,"viability, T/C",[15],56.5%
same,"viability, T/C",[16],65.4%
same,"viability, T/C",[17],59.8%
same,"viability, T/C",[18],57.6%
same,"viability, T/C",[19],87.5%
same,"viability, T/C",[20],74.7%
same,"viability, T/C",[21],58.2%
same,"viability, T/C",[22],60.5%
same,"viability, T/C",[23],55.6%
same,"viability, T/C",[24],62.1%
same,"viability, T/C",[25],87%
same,"viability, T/C",[26],80.4%
same,"viability, T/C",[27],51.4%
same,"viability, T/C",[28],50.9%
same,"viability, T/C",[29],60.7%
same,"viability, T/C",[30],52.1%
same,"viability, T/C",[31],92.3%
same,"viability, T/C",[32],77%
same,"viability, T/C",[33],60.5%
same,"viability, T/C",[34],58.8%
same,"viability, T/C",[35],62.8%
same,"viability, T/C",[36],46.7%
Cn1nccc1Nc1nccc(-c2ccn(C(CO)c3ccc(Cl)c(F)c3)c(=O)c2)n1 (stereo unspecified) + CC(Nc1ncnc2nc[nH]c12)c1cc2cccc(Cl)c2c(=O)n1-c1ccccc1,pIC50,second compound 0.0316 µM,< 5.00
same,pIC50,second compound 0.1 µM,< 5.00
same,pIC50,second compound 0.316 µM,< 5.00
same,pIC50,second compound 1 µM,< 5.00
same,pIC50,second compound 3.16 µM,< 5.00
same,pIC50,second compound 10 µM,< 5.00
same,"viability, T/C",[1],94.3%
same,"viability, T/C",[2],102%
same,"viability, T/C",[3],89.8%
same,"viability, T/C",[4],92.2%
same,"viability, T/C",[5],92.9%
same,"viability, T/C",[6],70.7%
same,"viability, T/C",[7],90.2%
same,"viability, T/C",[8],91.3%
same,"viability, T/C",[9],96.1%
same,"viability, T/C",[10],86.9%
same,"viability, T/C",[11],80.7%
same,"viability, T/C",[12],77.4%
same,"viability, T/C",[13],93.4%
same,"viability, T/C",[14],95.2%
same,"viability, T/C",[15],101%
same,"viability, T/C",[16],92.8%
same,"viability, T/C",[17],86.9%
same,"viability, T/C",[18],65.5%
same,"viability, T/C",[19],97.8%
same,"viability, T/C",[20],97.7%
same,"viability, T/C",[21],98.5%
same,"viability, T/C",[22],89.2%
same,"viability, T/C",[23],93.6%
same,"viability, T/C",[24],59.1%
same,"viability, T/C",[25],97.4%
same,"viability, T/C",[26],96.8%
same,"viability, T/C",[27],89.2%
same,"viability, T/C",[28],80.4%
same,"viability, T/C",[29],82.2%
same,"viability, T/C",[30],59.1%
same,"viability, T/C",[31],90.9%
same,"viability, T/C",[32],80.6%
same,"viability, T/C",[33],91.2%
same,"viability, T/C",[34],83.6%
same,"viability, T/C",[35],76.4%
same,"viability, T/C",[36],54.9%
